Experimental findings from US8461152B2, “Arylcyclohexylethers of dihydrotetraazabenzoazulenes” (Hoffmann-La Roche Inc., priority 2008, dated 2013) are described below.

Structures are written as SMILES.

The test deals with T1, human V1a receptor (Homo sapiens, UniProt P37288).
T1 construct: expressed in transfected cells; host or cells: HEK293 cells, transiently transfected; membrane preparation
T1 sequence (P37288 whole entry): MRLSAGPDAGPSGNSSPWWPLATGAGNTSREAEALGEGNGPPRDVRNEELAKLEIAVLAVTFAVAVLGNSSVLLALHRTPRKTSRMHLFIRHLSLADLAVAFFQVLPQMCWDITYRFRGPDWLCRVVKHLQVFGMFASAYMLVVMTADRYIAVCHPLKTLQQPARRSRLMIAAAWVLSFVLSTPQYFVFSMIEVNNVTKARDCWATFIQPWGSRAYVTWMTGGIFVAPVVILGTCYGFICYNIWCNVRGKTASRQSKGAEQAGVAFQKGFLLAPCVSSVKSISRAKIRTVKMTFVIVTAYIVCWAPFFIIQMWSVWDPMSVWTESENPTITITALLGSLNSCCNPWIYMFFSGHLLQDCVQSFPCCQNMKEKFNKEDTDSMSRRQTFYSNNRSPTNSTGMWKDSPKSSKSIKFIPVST
The test is described as follows: human V1a receptor binding studies (SPA, 3H-Vasopressin, membranes of transfected HEK293 cells). The conditions noted are these: displacement of 3H-Vasopressin, HEK293 cell membranes, 1 h at room temperature; Ki by Cheng-Prussoff equation; read-out: pKi (hV1a) (converted). On the procedure: The human V1a receptor was cloned by RT-PCR from total human liver RNA. The coding sequence was subcloned in an expression vector after sequencing to confirm the identity of the amplified sequence. […] Cell membranes were prepared from HEK293 cells transiently transfected with the expression vector and grown in 20 liter fermenters with the following protocol.
50 g of cells are resuspended in 30 ml freshly prepared ice cold Lysis buffer (50 mM HEPES, 1 mM EDTA, 10 mM magnesium dichloride adjusted to pH=7.4+complete cocktail of protease inhibitor (Roche Diagnostics)). Homogenized with Polytron for 1 min and sonicated on ice for 2×2 minutes at 80% intensity (Vibracell sonicator). The preparation is centrifuged 20 min at 500 g at 4° C., the pellet is discarded and the supernatant centrifuged 1 hour at 43'000 g at 4° C. (19'000 rpm). The pellet is resuspended in 12.5 ml Lysis buffer+12.5 ml Sucrose 20% and homogenized using a Polytron for 1-2 min. The protein concentration is determined by the Bradford method and aliquots are stored at −80° C. until use. For binding studies 60 mg Yttrium silicate SPA beads (Amersham) are mixed with an aliquot of membrane in binding buffer (50 mM Tris, 120 mM sodium chloride, 5 mM potassium chloride, 2 mM Calcium dichloride, 10 mM magnesium dichloride) for 15 minutes with mixing. 50 μl of bead/membrane mixture is then added to each well of a 96 well plate, followed by 50 μl of 4 nM 3H-Vasopressin (American Radiolabeled Chemicals). For total binding measurement 100 μl of binding buffer are added to the respective wells, for non-specific binding 100 μl of 8.4 mM cold vasopressin and for compound testing 100 μl of a serial dilution of each compound in 2% dimethyl sulfoxide. The plate is incubated 1 h at room temperature, centrifuged […] at 1000 g and counted on a Packard Top-Count. Non-specific binding counts are subtracted from each well and data is normalized to the maximum specific binding set at 100%. To calculate an IC 50 the curve is fitted using a non-linear regression model (XLfit) and the Ki is calculated using the Cheng-Prussoff equation.
A general note: Displacement assays read how much labelled ligand stays bound in the presence of the test substance.
As to `CC(C)(C)OC(=O)N1Cc2cc(Cl)ccc2-n2c(nnc2[C@H]2CC[C@H](Oc3ncccn3)CC2)C1` [Example 79, trans-8-Chloro-1-[4-(pyrimidin-2-yloxy)-cyclohexyl]-4H,6H-2,3,5,10b-tetraaza-benzo[e]azulene-5-carboxylic acid tert-butyl ester], the Ki was 2.57 nM. With `CC(C)(C)OC(=O)N1Cc2cc(Cl)ccc2-n2c(nnc2[C@H]2CC[C@@H](Oc3ncccn3)CC2)C1` [Example 80, cis-8-Chloro-1-[4-(pyrimidin-2-yloxy)-cyclohexyl]-4H,6H-2,3,5,10b-tetraaza-benzo[e]azulene-5-carboxylic acid tert-butyl ester], the Ki is 12.6 nM.

On to `CN1Cc2cc(Cl)ccc2-n2c(nnc2[C@H]2CC[C@H](Oc3ncccn3)CC2)C1` [Example 82, trans-8-Chloro-5-methyl-1-[4-(pyrimidin-2-yloxy)-cyclohexyl]-5,6-dihydro-4H-2,3,5,10b-tetraaza-benzo[e]azulene], for which the Ki is 5.5 nM. For the molecule `CC(C)(C)OC(=O)N1Cc2cc(Cl)ccc2-n2c(nnc2[C@H]2CC[C@H](Oc3cnccn3)CC2)C1` [Example 83, trans-8-Chloro-1-[4-(pyrazin-2-yloxy)-cyclohexyl]-4H,6H-2,3,5,10b-tetraaza-benzo[e]azulene-5-carboxylic acid tert-butyl ester], the Ki is 4.07 nM. With `CN1Cc2cc(Cl)ccc2-n2c(nnc2[C@H]2CC[C@H](Oc3cnccn3)CC2)C1` [Example 85, trans-8-Chloro-5-methyl-1-[4-(pyrazin-2-yloxy)-cyclohexyl]-5,6-dihydro-4H-2,3,5,10b-tetraaza-benzo[e]azulene] the figure was 7.59 nM. Turning to `CC(C)(C)OC(=O)N1Cc2cc(Cl)ccc2-n2c(nnc2[C@H]2CC[C@H](Oc3ccncn3)CC2)C1` [Example 86, trans-8-Chloro-1-[4-(pyrimidin-4-yloxy)-cyclohexyl]-4H,6H-2,3,5,10b-tetraaza-benzo[e]azulene-5-carboxylic acid tert-butyl ester], the Ki was 3.47 nM.

With `CN1Cc2cc(Cl)ccc2-n2c(nnc2[C@H]2CC[C@H](Oc3ccncn3)CC2)C1` [Example 89, trans-8-Chloro-5-methyl-1-[4-(pyrimidin-4-yloxy)-cyclohexyl]-5,6-dihydro-4H-2,3,5,10b-tetraaza-benzo[e]azulene], the Ki was 12.3 nM. The figure for `CC(C)(C)OC(=O)N1Cc2cc(Cl)ccc2-n2c(nnc2[C@H]2CC[C@H](Oc3cccnn3)CC2)C1` [Example 92, trans-8-Chloro-1-[4-(pyridazin-3-yloxy)-cyclohexyl]-4H,6H-2,3,5,10b-tetraaza-benzo[e]azulene-5-carboxylic acid tert-butyl ester] is 2.4 nM; for `CC(C)(C)OC(=O)N1Cc2cc(Cl)ccc2-n2c(nnc2[C@H]2CC[C@@H](Oc3cccnn3)CC2)C1` [Example 93, cis-8-Chloro-1-[4-(pyridazin-3-yloxy)-cyclohexyl]-4H,6H-2,3,5,10b-tetraaza-benzo[e]azulene-5-carboxylic acid tert-butyl ester] it is 7.94 nM; for `CN1Cc2cc(Cl)ccc2-n2c(nnc2[C@H]2CC[C@H](Oc3cccnn3)CC2)C1` [Example 95, trans-8-Chloro-5-methyl-1-[4-(pyridazin-3-yloxy)-cyclohexyl]-5,6-dihydro-4H-2,3,5,10b-tetraaza-benzo[e]azulene] it is 9.12 nM.

For `Fc1cccnc1O[C@H]1CC[C@H](c2nnc3n2-c2ccc(Cl)cc2CNC3)CC1` [Example 98, trans-8-Chloro-1-[4-(3-fluoro-pyridin-2-yloxy)-cyclohexyl]-5,6-dihydro-4H-2,3,5,10b-tetraaza-benzo[e]azulene], the Ki is 3.02 nM.

Turning to `Fc1ccc(O[C@H]2CC[C@H](c3nnc4n3-c3ccc(Cl)cc3CNC4)CC2)nc1` [Example 101, trans-8-Chloro-1-[4-(5-fluoro-pyridin-2-yloxy)-cyclohexyl]-5,6-dihydro-4H-2,3,5,10b-tetraaza-benzo[e]azulene], the Ki was 9.12 nM. In the case of `Cc1cccc(O[C@H]2CC[C@H](c3nnc4n3-c3ccc(Cl)cc3CNC4)CC2)n1` [Example 105, trans-8-Chloro-1-[4-(6-methyl-pyridin-2-yloxy)-cyclohexyl]-5,6-dihydro-4H-2,3,5,10b-tetraaza-benzo[e]azulene], the Ki is 5.75 nM. With `Clc1ccc2c(c1)CNCc1nnc([C@H]3CC[C@@H](Oc4ccccn4)CC3)n1-2` [Example 110, cis-8-Chloro-1-[4-(pyridin-2-yloxy)-cyclohexyl]-5,6-dihydro-4H-2,3,5,10b-tetraaza-benzo[e]azulene] the figure was 51.3 nM; with `CN1Cc2cc(Cl)ccc2-n2c(nnc2[C@H]2CC[C@@H](Oc3ccccn3)CC2)C1` [Example 111, cis-8-Chloro-5-methyl-1-[4-(pyridin-2-yloxy)-cyclohexyl]-5,6-dihydro-4H-2,3,5,10b-tetraaza-benzo[e]azulene], 3.31 nM.
